The source of these data is ChEMBL document CHEMBL3507680, “University of Dundee, Gates Library screen for HepG2 cell viability”.

The data set is described as follows: Human HepG2 cell viability assay in 384 well format. The data set is classed as toxicity, cell-based. On the set-up: dose 125 nL, time 70.5 hour; concentration not given beside the values. As to conditions: HepG2 cells, read-out: Inhibition.

As to `CCN(CC)c1ccc2ccc(C(=O)O)cn12`, the cytotoxicity at 70.5 h was -5.88%.

Turning to `Cc1cc(CN2C[C@@H]3COC[C@]3(c3nnc(C)o3)C2)no1`, the cytotoxicity at 70.5 h turned out to be 16.2%.

Regarding `Cc1cnc(N2C[C@@H]3[C@@H](C2)OCC(=O)N3CC2CC2)nc1`, the cytotoxicity at 70.5 h worked out at 14.2%. For `O=C(C1CCCO1)N1CCC2(CC1)CNCCO2` (stereo unspecified), the cytotoxicity at 70.5 h was determined as 9.56%. The result for `CC(C)NC(=O)c1ccc2c(c1)C(c1nc[nH]n1)CN2C` (stereo unspecified) reads -8.61%; that for `Cc1cnc(NC2CCc3c(ccc(=O)n3C)C2)nc1` (stereo unspecified), -4.77%.

Consider `COc1ccc(CN2CCO[C@H]3CN(C(=O)C4CC4)CC[C@H]3C2=O)cc1`, for which the cytotoxicity at 70.5 h was -12%. As for `CC(C)N1CCN(C)CC1c1nnc2ccc(C(=O)N3CCCC3)cn12` (stereo unspecified), the cytotoxicity at 70.5 h was -11.5%.

For the molecule `CC(=O)N1CCC2(CC1)CN(C(=O)c1cccc3[nH]ccc13)C2`, the cytotoxicity at 70.5 h was -11.6%. On to `CC(C)NC(=O)c1ccc2c(c1)C(c1nc[nH]n1)CN2S(C)(=O)=O` (stereo unspecified), for which the cytotoxicity at 70.5 h was -14.8%. `O=C1[C@@H]2CCN(C3CCC3)C[C@@H]2OCCN1Cc1ccncc1`: the cytotoxicity at 70.5 h worked out at 20.5%. The result for `O=C(NC1CCC1)C1CCC2(CN(C(=O)c3ccco3)C2)O1` (stereo unspecified) reads -13.3%. As to `CN(C)C(=O)NCc1nnc2n1CCN(Cc1cccs1)C2`, the cytotoxicity at 70.5 h was -2.91%. For the molecule `CCOC1CC2(CCN(C(=O)COC)CC2)c2cc(C)ccc21` (stereo unspecified), the cytotoxicity at 70.5 h was -9.53%.

Take `N#CCC(=O)NCc1nnc2n1CCN(Cc1ccsc1)C2`: the cytotoxicity at 70.5 h amounted to 9.84%. The result for `CC(=O)N1Cc2nccn2CC(CNC(=O)c2ccnnc2)C1` (stereo unspecified) reads 9.01%; that for `CN(C)S(=O)(=O)N1C[C@H]2CCC[C@@]2(COCC2CCOCC2)C1`, 9.65%; that for `CCN1CC2(CC1=O)CN(C(=O)c1ccoc1)CCN(C(=O)N(C)C)C2` (stereo unspecified), 3.23%. For the molecule `CCN1CC2(CC1=O)CN(C(=O)c1ccsc1)CCN(C(=O)N(C)C)C2` (stereo unspecified), the cytotoxicity at 70.5 h is 3.77%.

`c1ccc(COC[C@H]2CC[C@H]3[C@H](CCN3Cc3ccco3)O2)nc1`: the cytotoxicity at 70.5 h was -6.26%. `CN1Cc2c(C(=O)NCC3CCCO3)ncn2-c2ccccc2S1(=O)=O` (stereo unspecified): the cytotoxicity at 70.5 h is -0.787%. As for `CCS(=O)(=O)N1CC[C@H]2[C@H]1CC(=O)N2Cc1csc(C)n1`, the cytotoxicity at 70.5 h was -1.34%.

Take `COc1nn(C)c2c1CCCN(C(=O)c1ccsc1)C2`: the cytotoxicity at 70.5 h is -108%. Turning to `COCCC(=O)N1CCC2(CCCN2Cc2ccccc2)C1` (stereo unspecified), the cytotoxicity at 70.5 h was -52.9%. As to `COCCO[C@H]1CCN(C(=O)NC2CC2)[C@H]1Cc1cnn(C)c1`, the cytotoxicity at 70.5 h is -123%. With `CCC1=N[C@@]2(CC[C@@H]3CN(C(=O)Nc4ccccc4)C[C@@H]32)C(=O)N1CC`, the cytotoxicity at 70.5 h was -85.5%. For the molecule `CCN1C(=O)[C@]2(CC[C@@H]3CN(C(=O)Nc4ccc(F)cc4)C[C@@H]32)N=C1C`, the cytotoxicity at 70.5 h was -77.4%. On to `CC1=N[C@@]2(CC[C@@H]3CN(C(=O)Nc4ccc(F)cc4)C[C@@H]32)C(=O)N1C`, for which the cytotoxicity at 70.5 h is -101%.

`CN1CCN(C(=O)c2cc(-c3cnc(N4CCCC4)nc3)cn2C)CC1`: the cytotoxicity at 70.5 h is -21.9%. On to `CC(=O)N1CCC2(CC1)CN(C)C(=O)C[C@H]2C(F)(F)F`, for which the cytotoxicity at 70.5 h was -7.04%. For `O=C(N[C@@H]1CN[C@H]2CCCO[C@H]21)c1cnccn1`, the cytotoxicity at 70.5 h is -0.404%. Consider `c1csc(N2[C@H](Cn3cncn3)C[C@@H]3CNCC[C@@H]32)n1`, for which the cytotoxicity at 70.5 h came to 10.2%.

For `c1c(CN2CCCCC2)nc2n1CCNC2`, the cytotoxicity at 70.5 h was 8.55%. The result for `COCCN1CCO[C@H]2CN(C(=O)c3cccs3)C[C@H]21` reads -7.52%; that for `O=C(CC1CC1)NC[C@]12COC[C@H]1CN(c1ncc(F)cn1)C2`, -2.2%; that for `COc1ccc(CN2CCO[C@H]3CN(C4CCCC4)CC[C@H]3C2=O)cc1`, -1.08%. The result for `COc1ccc(CN2CCO[C@H]3CN(C4CCC4)CC[C@H]3C2=O)cc1` reads -0.486%; that for `CC(C)CN1CC[C@@H]2[C@H](CC1)N(C(=O)c1ccccc1)CCS2(=O)=O`, -1.5%. As for `COCC(=O)NC[C@]12COC[C@H]1CN(c1ncc(F)cn1)C2`, the cytotoxicity at 70.5 h is -7.55%. Regarding `O=C(CC1CC1)NC[C@]12COC[C@H]1CN(c1ncccn1)C2`, the cytotoxicity at 70.5 h was -8%. As to `Fc1cnc(N2CCn3c(CN4CCCC4)nnc3C2)nc1`, the cytotoxicity at 70.5 h was -9.62%. As for `CC(=O)N1CCC2(CC1)CC(N1CCOCC1)c1ccc(C)cc12` (stereo unspecified), the cytotoxicity at 70.5 h was -8.04%. Consider `Cc1cnc(N2CCn3c(CN4CCOCC4)nnc3C2)nc1`, for which the cytotoxicity at 70.5 h was 21.1%. Then `Cn1cnc(S(=O)(=O)N2C[C@H](OCC3CC3)[C@H]3OCCC[C@H]32)c1`, with 16.2%.

For the molecule `Cc1ccc2c(c1)C1(CCN(C(=O)C3CC3)CC1)CC2N1CCOCC1` (stereo unspecified), the cytotoxicity at 70.5 h is -3.95%.

Take `CO[C@@H]1CN(S(=O)(=O)c2cn(C)cn2)[C@@H]2CCCO[C@@H]21`: the cytotoxicity at 70.5 h is -4.74%. The result for `Cn1c2c(ccc1=O)CC(Nc1ncc(F)cn1)CC2` (stereo unspecified) reads -11.5%; that for `CN(C)[C@@H]1CN(C(=O)c2ccc(C#N)cc2)[C@@H]2CCCO[C@H]12`, 3.23%. For the molecule `CS(=O)(=O)N1Cc2nccn2CC(CNC(=O)c2cccnc2)C1` (stereo unspecified), the cytotoxicity at 70.5 h was -5.69%.

With `CCN1CCC12CCN(C(=O)c1ccsc1)C2` (stereo unspecified), the cytotoxicity at 70.5 h is -12.4%. On to `Cc1cccc(CN2CC3C[C@]3(NC(=O)c3cccc(F)c3)C2)n1` (stereo partly specified), for which the cytotoxicity at 70.5 h is -12.2%.

Consider `O=C(c1ccncc1F)N1C[C@@H]2OCCN(CC3CC3)[C@@H]2C1`, for which the cytotoxicity at 70.5 h is -12.9%.

As for `Cc1cc(C(=O)N2C[C@@H]3COC[C@]3(CN(C)C)C2)sc1C`, the cytotoxicity at 70.5 h is -11.8%. Consider `O=C(c1nc2c(o1)CN(CC1CCC1)C2)N1CCCC1`, for which the cytotoxicity at 70.5 h was found to be 10.5%. `Cc1nc(CN2C(=O)C[C@@H]3[C@@H]2CCN3CC2CCOCC2)cs1`: the cytotoxicity at 70.5 h is 23.6%. Then `CN1Cc2c(C(=O)NC3CCCCC3)ncn2-c2ccccc2S1(=O)=O`, with 2.35%; and `COC[C@H]1CC[C@@H]2[C@@H](CCN2Cc2ccco2)O1`, with 20.4%; and `Cc1cccc(CN2CCc3ncnc(N4CCCC4)c3CC2)n1`, with -2.78%.

For the molecule `O=C(NC[C@H]1OC[C@@H]2CCN(Cc3ccco3)C[C@@H]21)c1ccnnc1`, the cytotoxicity at 70.5 h was -1.68%. The result for `c1ccc(CN2CCc3ncnc(C4CC4)c3CC2)cc1` reads 26.7%; that for `CN1CCN(C(=O)c2ncn3c2CN(C)S(=O)(=O)c2ccccc2-3)CC1`, 1.76%; that for `CC(C)NC(=O)N1CCCn2cnc(CO)c2C1`, 6.26%. In the case of `CCc1ncnc2c1CCN(Cc1ccc3c(c1)OCO3)CC2`, the cytotoxicity at 70.5 h came out at 4.52%. The result for `Cc1nc(CN2C(=O)C[C@H]3[C@H]2CCN3CC2CCOC2)cs1` (stereo partly specified) reads 2.38%; that for `CN(C(=O)c1ncn2c1CN(C)S(=O)(=O)c1ccccc1-2)C1CC1`, -3.76%. `CC(C)C(C)NC(=O)c1ncn2c1CN(C)S(=O)(=O)c1ccccc1-2` (stereo unspecified): the cytotoxicity at 70.5 h is -2.58%. As to `Cn1cc(CN2CC[C@H]3O[C@H](C(=O)Nc4cnccn4)CC[C@H]32)cn1`, the cytotoxicity at 70.5 h came out at 29.6%.

`Cc1nc(CN2C(=O)C[C@H]3[C@H]2CCN3C2CCOC2)cs1` (stereo partly specified): the cytotoxicity at 70.5 h is 28.1%. In the case of `O=C(COC[C@H]1CC[C@H]2[C@H](CCN2c2ccccn2)O1)N1CCCC1`, the cytotoxicity at 70.5 h was -111%.

Turning to `CCS(=O)(=O)N1CCC2(CN(c3ccsc3)C(=O)CN2C)C1` (stereo unspecified), the cytotoxicity at 70.5 h was -124%. The result for `Cc1cnc(N2CC[C@@H]3OC(COCC(=O)N(C)C)CC[C@@H]32)nc1` (stereo partly specified) reads -117%.

As to `c1cnc(NCc2nnn3c2CN(Cc2ccsc2)CCC3)nc1`, the cytotoxicity at 70.5 h is -118%. For `Cc1nc(CN2CCOCC3(CCN(c4ncccn4)CC3)C2)cs1`, the cytotoxicity at 70.5 h was -97.5%. On to `c1cncc(N2CC[C@@H]3CN(CC4CC4)C[C@@H]3C2)c1`, for which the cytotoxicity at 70.5 h is -26.1%.

On to `O=C1COC2(CCN(Cc3ccoc3)CC2)CN1`, for which the cytotoxicity at 70.5 h is -30.5%. For the molecule `Fc1cccc(O[C@@H]2C[C@H]3CN(Cc4ccccn4)CCN3C2)c1`, the cytotoxicity at 70.5 h came to 27.5%. Consider `COc1ncccc1C(=O)N1C[C@@H]2COC[C@]2(CN(C)C)C1`, for which the cytotoxicity at 70.5 h was -1.76%. For `Cc1cccc(CN2CC[C@H]3[C@H]2CCN3C(=O)c2cnn(C)c2)n1`, the cytotoxicity at 70.5 h is 2.83%. For the molecule `Cn1cc(CN2CC[C@@H]3[C@@H](CO[C@H]3CNC(=O)c3ccco3)C2)cn1`, the cytotoxicity at 70.5 h is -3.28%. For the molecule `Cc1cccc(CN2CC[C@H]3O[C@H](C(=O)Nc4cnccn4)CC[C@H]32)n1`, the cytotoxicity at 70.5 h is 1.13%.

On to `Cc1cccc(CN2CCc3ncnc(NC4CCC4)c3CC2)n1`, for which the cytotoxicity at 70.5 h came out at 5.7%.

Consider `O=c1ccc2c(n1Cc1cccnc1)CCN(Cc1ccoc1)CC2`, for which the cytotoxicity at 70.5 h was 4.28%. The result for `Cc1nc(CN2CCOCC3(CCN(c4ccccn4)C3)C2)cs1` (stereo unspecified) reads -40.4%. Regarding `C1CCN(CCO[C@@H]2CC[C@H]3[C@H]2OCCN3CC2CCOCC2)C1`, the cytotoxicity at 70.5 h is -120%. Consider `COCC1c2c(cnn2C)CCN1Cc1ccco1` (stereo unspecified), for which the cytotoxicity at 70.5 h was -0.607%.

Regarding `CN1CCN(C(=O)[C@H]2C[C@@H]3CN(c4ncc(F)cn4)C[C@@H]3N2C)CC1`, the cytotoxicity at 70.5 h was -8.27%.

For the molecule `CC(C)N(C)Cc1nnn2c1CN(Cc1cccnc1)CCC2`, the cytotoxicity at 70.5 h is -101%. With `c1cncc(CN2CCCn3nnc(CN4CCCC4)c3C2)c1`, the cytotoxicity at 70.5 h was -64.2%. Then `OCCN1CCC2(CC1)CC(NCc1ccccn1)c1ccccc1O2` (stereo unspecified), with -0.919%.

`CC(C)N1CCC2(CC1)CC(NCc1ccccn1)c1ccccc1O2` (stereo unspecified): the cytotoxicity at 70.5 h was -0.344%. For `CCN1CCC2(CC1)CC(NCc1cccc(C)n1)c1ccccc1O2` (stereo unspecified), the cytotoxicity at 70.5 h was -16.9%.
